Experimental data: patent US7173063B1, “Topoisomerase poisons for the treatment of proliferative disorders” (Fred Hutchinson Cancer Research Center, priority 2000, dated 2007)

Target: T1, Topo II (Saccharomyces cerevisiae, UniProt P06786)
T1 construct: Strains are wild-type (wt) or constitutively overexpressing Topo II (TOP2oe); endogenous in cells; host or cells: S. cerevisiae A364a background, chromosomal TOP2 with its promoter replaced by the GPD promoter (TOP2oe)
T1 sequence (P06786 1-1428): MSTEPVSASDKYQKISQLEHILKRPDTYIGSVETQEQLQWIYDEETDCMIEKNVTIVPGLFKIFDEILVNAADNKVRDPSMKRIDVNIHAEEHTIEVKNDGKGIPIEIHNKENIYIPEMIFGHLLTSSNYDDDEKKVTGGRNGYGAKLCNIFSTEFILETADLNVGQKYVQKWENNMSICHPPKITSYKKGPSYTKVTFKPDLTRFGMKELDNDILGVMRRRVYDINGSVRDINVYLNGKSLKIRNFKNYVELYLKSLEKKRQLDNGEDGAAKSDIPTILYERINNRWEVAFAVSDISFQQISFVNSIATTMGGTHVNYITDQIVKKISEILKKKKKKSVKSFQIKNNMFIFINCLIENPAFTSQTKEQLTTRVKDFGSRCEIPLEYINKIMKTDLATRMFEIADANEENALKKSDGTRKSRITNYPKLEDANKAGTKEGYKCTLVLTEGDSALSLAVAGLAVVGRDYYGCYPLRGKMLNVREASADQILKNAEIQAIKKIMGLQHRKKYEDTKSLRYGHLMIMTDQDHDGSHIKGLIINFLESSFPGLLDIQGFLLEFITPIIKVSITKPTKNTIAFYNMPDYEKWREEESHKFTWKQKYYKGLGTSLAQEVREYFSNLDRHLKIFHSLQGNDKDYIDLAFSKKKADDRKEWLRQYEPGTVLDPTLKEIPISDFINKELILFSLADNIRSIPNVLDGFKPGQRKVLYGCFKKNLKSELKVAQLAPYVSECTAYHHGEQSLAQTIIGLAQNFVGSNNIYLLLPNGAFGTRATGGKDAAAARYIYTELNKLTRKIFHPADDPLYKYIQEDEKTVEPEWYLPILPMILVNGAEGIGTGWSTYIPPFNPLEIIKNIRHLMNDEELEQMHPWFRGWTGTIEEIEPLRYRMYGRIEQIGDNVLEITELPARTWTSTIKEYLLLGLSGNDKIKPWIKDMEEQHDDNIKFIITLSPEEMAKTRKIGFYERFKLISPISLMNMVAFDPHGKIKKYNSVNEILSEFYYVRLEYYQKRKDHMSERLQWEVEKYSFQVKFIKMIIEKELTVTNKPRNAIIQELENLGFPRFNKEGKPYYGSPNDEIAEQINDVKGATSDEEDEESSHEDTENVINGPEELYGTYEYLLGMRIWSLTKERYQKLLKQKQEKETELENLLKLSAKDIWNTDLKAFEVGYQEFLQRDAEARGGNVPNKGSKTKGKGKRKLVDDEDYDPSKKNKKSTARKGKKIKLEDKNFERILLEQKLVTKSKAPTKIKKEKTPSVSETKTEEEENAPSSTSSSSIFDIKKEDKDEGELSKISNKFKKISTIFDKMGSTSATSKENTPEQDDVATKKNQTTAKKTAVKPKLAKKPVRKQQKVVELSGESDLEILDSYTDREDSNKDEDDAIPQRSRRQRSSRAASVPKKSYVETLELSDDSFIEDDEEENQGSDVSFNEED
Test: Yeast toxicity in strain overexpressing Topo II (TOP2oe)
Assay type: cell-based
Conditions: TOP2oe vs wild-type strain
Source text: The strains are derived from the A364a genetic background, with the exception of BY4705, which is derived from the S288C background. Gene disruptions were generated by PCR fragment directed replacement (Baudin, et al., Nucleic Acids Research 21: 3329–30 (1993), Guldener, et al., Nucleic Acids Research 24: 2519–24 (1996)). Yeast overexpressing topoisomerase II was constructed by a PCR fragment directed promoter replacement of the topoisomerase II promoter with the yeast GPD promoter flanked upstream by the URA3 marker. All strains (except BY4705) bear the pleitropic drug sensitizing mutations erg6, pdr1, and pdr3 (Balzi, et al., Journal of Bioenergetics & Biomembranes 27: 71–6 (1995), Delaveau, et al, Molecular & General Genetics 244: 501–11 (1994), Gaber, et al., Molecular & Cellular Biology 9: 3447–56 (1989), Saunders, et al., Canadian Journal of Genetics & Cytology, 24: 493–503 (1982). Subik, et al, Current Genetics 10: 665–70 (1986)). The haploid yeast strain BY4705 (Brachmann, et al., Yeast 14: 115–32 (1998)) was used in the experiments described in FIG. 5. Plasmids expressing yeast or human topoisomerase I genes under the GAL promoter (Knab, et al., Journal of Biological Chemistry 268: 22322–30 (1993). Knab, et al., Journal of Biological Chemistry 270: 6141–8 (1995)) were transformed into BY4705 using standard procedures.
Yeast toxicity assays were performed essentially as follows: Exponentially growing cultures of the appropriate strains were diluted in synthetic complete media to a concentration of 7.4×10^4 cells/mL, and aliquots (135 μL) were transferred to each well of clear flat-bottomed 96 well plates. Compounds were added in duplicate or triplicate as 15 μL of the appropriate dilution in 5% DMSO. A 15 μL portion of 5% DMSO was added to control wells. Assay plates were incubated at 30° C. for approximately seven generations growth in solvent control wells (as monitored by OD660, typically 21–24 hours), then the OD660 of the cultures was measured in a microplate reader (Bio-Tek). […]

Row | Compound | effect of overexpression of Topo II on toxicity
1 | O=C(CCl)Nc1ccc(C(=O)N/N=C/c2ccc(Cl)cc2)cc1 [compound Ia] | Neither compound shows a large increase in toxicity
2 | CC(=O)[C@]1(O)Cc2c(O)c3c(c(O)c2[C@@H](O[C@H]2C[C@H](N)[C@H](O)[C@H](C)O2)C1)C(=O)c1ccccc1C3=O [idarubicin, reference compound] | large increase
3 | O=c1c(Cl)c(Cl)cnn1CCCl [compound IIa] | Neither compound shows a large increase in toxicity
